One assay has as its target CSNK2A1 (CK2 alpha 1) (Homo sapiens (Human), UniProt P68400). The assay can be described thus: CK2 alpha 1 enzymatic activity inhibition (Z'-LYTE). The format is biochemical. Conditions: read-out: CK2a IC50. Here is the method:
CK2 Alpha 1 Enzymatic Activity Inhibition: Determination of IC50 Values for Selected Compounds
The half maximal inhibitory concentration (IC50) with respect to CK2 alpha 1 inhibition was determined for the compounds of the invention by using Z′-LYTE™ from ThermoFisher Scientific's SelectScreen™ Biochemical Kinase Profiling Service (Waltham, MA). Compounds were screened in 1% DMSO (final) in the well. For 10 point titrations, 3-fold serial dilutions were conducted from the starting concentration. The 2×CSNK2A1 (CK2 alpha 1)/Ser/Thr 11 mixture is prepared in 50 mM HEPES pH 7.5, 0.01% BRIJ-35, 10 mM MgCl2, 1 mM EGTA. The black 384-well plate (Corning Cat. #4514) were used for the assay. 100 nL of 100× test compound in 100% DMSO, 2.4 uL of kinase buffer (50 mM HEPES pH 7.5, 0.01% BRIJ-35, 10 mM MgCl2, 1 mM EGTA), 5 uL of 2×CSNK2A1 (CK2 alpha 1)/Ser/Thr 11 mixture, and 2.5 uL of 4×ATP solution were mixed and agitated for 30 seconds. Then the Kinase Reaction was incubated at room temperature for 60 minutes. The final 10 uL Kinase Reaction consisted of 0.68-25.7 ng CSNK2A1 (CK2 alpha 1) and 2 μM Ser/Thr 11 in 50 mM HEPES pH 7.5, 0.01% BRIJ-35, 10 mM MgCl2, 1 mM EGTA. After the 1 hour Kinase Reaction incubation, 5 uL of a 1:16 dilution of Development Reagent B is added. After 30 second of plate shake, the reaction plate was incubated for another 60 min at room temperature. Then the plate was read on a fluorescence plate reader (CLARIOstar, BMG Labtech, Germany) and data was analyzed using XLfit from IDBS. The dose response curve was curve fit to model number 205 (sigmoidal dose-response model).

A further assay has as its target HIPK2 (Homo sapiens (Human), UniProt Q9H2X6). The assay can be described thus: HIPK2 enzymatic activity inhibition (Z'-LYTE). The format is biochemical. How it is done: HIPK2 Enzymatic Activity Inhibition: Determination of IC50 Values for Selected Compounds
The half maximal inhibitory concentration (IC50) with respect to HIPK2 inhibition was determined for the compounds of the invention by using Z′-LYTE™ from ThermoFisher Scientific's SelectScreen™ Biochemical Kinase Profiling Service (Waltham, MA). Compounds were screened in 1% DMSO (final) in the well. For 10 point titrations, 3-fold serial dilutions were conducted from the starting concentration. The 2×HIPK2/Ser/Thr 09 mixture was prepared in 50 mM HEPES pH 7.5, 0.01% BRIJ-35, 10 mM MgCl2, 1 mM EGTA.
100 nL of 100× test compound in 100% DMSO, 2.4 uL of kinase buffer (50 mM HEPES pH 7.5, 0.01% BRIJ-35, 10 mM MgCl2, 1 mM EGTA), 5 uL of 2×HIPK2/Ser/Thr 09 mixture, and 2.5 uL of 4×ATP solution were mixed and agitated for 30 seconds. Then the Kinase Reaction was incubated at room temperature for 60 minutes. […] After 30 second of plate shake, the reaction plate was incubated for another 60 min at room temperature. Then the plate was read on a fluorescence plate reader (CLARIOstar, BMG Labtech, Germany) as plate reader and data was analyzed using XLfit from IDBS.

A word on the IC50: it is the concentration at which inhibition is half-maximal.

Where two headings read alike, the source gives them in different places. A value given as a limit tells only on which side of the number the result lay.

Chain of HIPK2 (Q9H2X6 whole entry): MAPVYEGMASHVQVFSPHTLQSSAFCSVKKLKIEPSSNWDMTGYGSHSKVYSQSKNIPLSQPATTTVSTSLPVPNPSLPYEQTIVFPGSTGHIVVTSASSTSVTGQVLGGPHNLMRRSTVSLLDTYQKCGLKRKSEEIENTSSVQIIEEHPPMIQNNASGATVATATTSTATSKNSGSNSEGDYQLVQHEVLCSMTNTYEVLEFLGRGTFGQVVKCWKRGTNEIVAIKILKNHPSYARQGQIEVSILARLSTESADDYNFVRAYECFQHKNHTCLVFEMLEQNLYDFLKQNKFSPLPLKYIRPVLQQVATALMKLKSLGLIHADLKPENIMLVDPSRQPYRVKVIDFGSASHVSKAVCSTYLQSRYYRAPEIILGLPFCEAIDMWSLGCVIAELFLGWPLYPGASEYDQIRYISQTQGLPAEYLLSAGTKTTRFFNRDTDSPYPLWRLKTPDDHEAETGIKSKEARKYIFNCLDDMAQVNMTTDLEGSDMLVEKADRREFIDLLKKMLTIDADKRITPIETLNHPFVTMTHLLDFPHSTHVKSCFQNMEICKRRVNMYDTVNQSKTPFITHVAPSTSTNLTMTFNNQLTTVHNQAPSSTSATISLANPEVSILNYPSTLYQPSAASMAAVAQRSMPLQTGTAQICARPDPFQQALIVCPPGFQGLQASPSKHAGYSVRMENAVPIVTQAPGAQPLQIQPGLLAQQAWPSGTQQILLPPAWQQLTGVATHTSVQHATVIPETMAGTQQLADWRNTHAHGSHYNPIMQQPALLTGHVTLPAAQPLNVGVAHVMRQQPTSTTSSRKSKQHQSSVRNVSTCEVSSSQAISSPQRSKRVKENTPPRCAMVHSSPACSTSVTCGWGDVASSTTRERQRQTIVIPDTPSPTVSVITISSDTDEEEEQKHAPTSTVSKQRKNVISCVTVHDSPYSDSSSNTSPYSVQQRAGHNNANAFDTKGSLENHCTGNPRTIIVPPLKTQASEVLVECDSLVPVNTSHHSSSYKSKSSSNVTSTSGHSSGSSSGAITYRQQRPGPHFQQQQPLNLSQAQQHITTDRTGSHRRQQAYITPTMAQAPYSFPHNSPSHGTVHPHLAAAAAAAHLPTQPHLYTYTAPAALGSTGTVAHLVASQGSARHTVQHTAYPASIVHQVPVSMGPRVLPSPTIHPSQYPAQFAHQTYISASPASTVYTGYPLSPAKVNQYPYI
Chain of CSNK2A1 (CK2 alpha 1) (P68400 whole entry): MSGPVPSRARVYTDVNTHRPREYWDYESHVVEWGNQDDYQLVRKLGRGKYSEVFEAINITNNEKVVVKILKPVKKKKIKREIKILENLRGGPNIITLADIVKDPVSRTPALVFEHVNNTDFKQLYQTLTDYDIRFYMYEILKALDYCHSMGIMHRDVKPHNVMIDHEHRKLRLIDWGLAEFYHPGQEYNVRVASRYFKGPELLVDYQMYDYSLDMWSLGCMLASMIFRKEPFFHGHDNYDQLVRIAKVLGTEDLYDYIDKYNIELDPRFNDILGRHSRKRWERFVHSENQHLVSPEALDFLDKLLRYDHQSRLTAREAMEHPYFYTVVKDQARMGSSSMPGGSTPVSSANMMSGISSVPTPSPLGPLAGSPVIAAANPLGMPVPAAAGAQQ

For the molecule `NC(=O)c1ccc2c(c1)cc(Br)c1ccnc(N)c12` [Compound 33, 1-Amino-5-bromobenzo[h]isoquinoline-8-carboxamide], the half-maximal inhibitory concentration (IC50) at CSNK2A1 (CK2 alpha 1) is 1000 to 5000 nM; on HIPK2, 300 to 1000 nM.

As for `COc1nccc2c(Br)cc3cc(C(=O)O)ccc3c12` [Compound 34, Sodium 5-bromo-1-methoxybenzo[h]isoquinoline-8-carboxylate], the IC50 on CSNK2A1 (CK2 alpha 1) lay within 300 to 1000 nM; at HIPK2, 1000 to 5000 nM.

In the case of `Nc1nccc2cc(Br)c3cc(C(=O)O)ccc3c12` [Compound 35, Sodium 1-amino-6-bromobenzo[h]isoquinoline-8-carboxylate], the values for the half-maximal inhibitory concentration (IC50) on CSNK2A1 (CK2 alpha 1) and on HIPK2 (read-out: HIPK2 IC50) were 300 to 1000 nM and below 300 nM, respectively.
